In ChEMBL document CHEMBL5241132, “Design, synthesis and in vitro biological evaluation of 2-aminopyridine derivatives as novel PI3Kδ inhibitors for hematological cancer” (Bioorg Med Chem Lett, 2023):
Values belong to the molecule of their own block, whether it stands above or below them.

Tests used:
[1] = Antiproliferative activity against human MOLM16 cells assessed as inhibition of cell growth; type: functional, cell-based, MOLM-16
KG-1 = experiment: Antiproliferative activity against human KG-1 cells assessed as inhibition of cell growth; type: functional, cell-based
HL-60 = experiment: Antiproliferative activity against human HL-60 cells assessed as inhibition of cell growth; type: functional, cell-based
MV4-11 [2] = experiment: Antiproliferative activity against human MV4-11 cells assessed as inhibition of cell growth; type: functional, cell-based
EOL1 = experiment: Antiproliferative activity against human EOL1 cells assessed as inhibition of cell growth; type: functional, cell-based
MV4-11 [3] = experiment: Induction of apoptosis in human MV4-11 cells assessed as necrotic cells at 1 uM incubated for 48 hrs by Annexin V/PI staining based flow cytometric analysis (reference value: 0.060%); type: functional
MV4-11 [4] = experiment: Induction of apoptosis in human MV4-11 cells assessed as early apoptotic cells at 3 uM incubated for 48 hrs by Annexin V/PI staining based flow cytometric analysis (reference value: 1.57%); type: functional
MV4-11 [5] = experiment: Induction of apoptosis in human MV4-11 cells assessed as late apoptotic cells at 1 uM incubated for 48 hrs by Annexin V/PI staining based flow cytometric analysis (reference value: 2.82%); type: functional
[6] = biological target: Phosphatidylinositol 4,5-bisphosphate 3-kinase catalytic subunit gamma isoform (Homo sapiens, UniProt P48736); experiment: Inhibition of PI3Kgamma (unknown origin)
Chain of Phosphatidylinositol 4,5-bisphosphate 3-kinase catalytic subunit gamma isoform (P48736 whole entry, canonical isoform): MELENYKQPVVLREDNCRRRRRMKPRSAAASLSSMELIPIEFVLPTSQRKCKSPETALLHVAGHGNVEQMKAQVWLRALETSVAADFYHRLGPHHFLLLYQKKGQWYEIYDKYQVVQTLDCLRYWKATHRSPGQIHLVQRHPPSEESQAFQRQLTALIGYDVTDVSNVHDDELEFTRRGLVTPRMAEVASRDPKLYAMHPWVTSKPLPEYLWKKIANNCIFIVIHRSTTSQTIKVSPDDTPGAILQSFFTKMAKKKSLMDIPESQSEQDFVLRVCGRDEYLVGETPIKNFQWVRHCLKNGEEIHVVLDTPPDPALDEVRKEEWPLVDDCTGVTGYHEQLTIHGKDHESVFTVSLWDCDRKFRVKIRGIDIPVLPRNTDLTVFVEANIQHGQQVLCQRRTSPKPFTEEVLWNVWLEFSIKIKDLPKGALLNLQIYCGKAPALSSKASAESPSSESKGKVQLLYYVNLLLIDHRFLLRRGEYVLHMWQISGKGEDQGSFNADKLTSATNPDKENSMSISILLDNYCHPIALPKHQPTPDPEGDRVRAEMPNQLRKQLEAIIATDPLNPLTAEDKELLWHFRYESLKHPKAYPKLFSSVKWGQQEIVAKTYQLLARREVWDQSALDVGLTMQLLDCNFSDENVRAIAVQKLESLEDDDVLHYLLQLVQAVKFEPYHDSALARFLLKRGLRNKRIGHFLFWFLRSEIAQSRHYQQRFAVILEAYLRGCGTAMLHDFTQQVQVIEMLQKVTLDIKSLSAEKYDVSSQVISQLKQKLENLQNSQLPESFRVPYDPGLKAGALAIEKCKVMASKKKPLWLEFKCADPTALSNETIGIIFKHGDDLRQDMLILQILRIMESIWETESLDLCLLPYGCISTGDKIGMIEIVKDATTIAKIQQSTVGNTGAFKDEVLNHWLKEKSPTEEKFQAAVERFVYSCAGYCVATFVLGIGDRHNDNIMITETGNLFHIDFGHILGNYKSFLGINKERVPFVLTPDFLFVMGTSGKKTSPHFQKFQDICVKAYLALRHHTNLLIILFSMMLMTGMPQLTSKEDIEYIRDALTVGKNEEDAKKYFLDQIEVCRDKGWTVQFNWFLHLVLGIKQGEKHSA

[7] = biological target: T1, Phosphatidylinositol 4,5-bisphosphate 3-kinase catalytic subunit delta isoform (Homo sapiens, UniProt O00329); experiment: Inhibition of PI3Kdelta (unknown origin) by ADP Glo luminescent assay
T1 sequence (O00329 whole entry): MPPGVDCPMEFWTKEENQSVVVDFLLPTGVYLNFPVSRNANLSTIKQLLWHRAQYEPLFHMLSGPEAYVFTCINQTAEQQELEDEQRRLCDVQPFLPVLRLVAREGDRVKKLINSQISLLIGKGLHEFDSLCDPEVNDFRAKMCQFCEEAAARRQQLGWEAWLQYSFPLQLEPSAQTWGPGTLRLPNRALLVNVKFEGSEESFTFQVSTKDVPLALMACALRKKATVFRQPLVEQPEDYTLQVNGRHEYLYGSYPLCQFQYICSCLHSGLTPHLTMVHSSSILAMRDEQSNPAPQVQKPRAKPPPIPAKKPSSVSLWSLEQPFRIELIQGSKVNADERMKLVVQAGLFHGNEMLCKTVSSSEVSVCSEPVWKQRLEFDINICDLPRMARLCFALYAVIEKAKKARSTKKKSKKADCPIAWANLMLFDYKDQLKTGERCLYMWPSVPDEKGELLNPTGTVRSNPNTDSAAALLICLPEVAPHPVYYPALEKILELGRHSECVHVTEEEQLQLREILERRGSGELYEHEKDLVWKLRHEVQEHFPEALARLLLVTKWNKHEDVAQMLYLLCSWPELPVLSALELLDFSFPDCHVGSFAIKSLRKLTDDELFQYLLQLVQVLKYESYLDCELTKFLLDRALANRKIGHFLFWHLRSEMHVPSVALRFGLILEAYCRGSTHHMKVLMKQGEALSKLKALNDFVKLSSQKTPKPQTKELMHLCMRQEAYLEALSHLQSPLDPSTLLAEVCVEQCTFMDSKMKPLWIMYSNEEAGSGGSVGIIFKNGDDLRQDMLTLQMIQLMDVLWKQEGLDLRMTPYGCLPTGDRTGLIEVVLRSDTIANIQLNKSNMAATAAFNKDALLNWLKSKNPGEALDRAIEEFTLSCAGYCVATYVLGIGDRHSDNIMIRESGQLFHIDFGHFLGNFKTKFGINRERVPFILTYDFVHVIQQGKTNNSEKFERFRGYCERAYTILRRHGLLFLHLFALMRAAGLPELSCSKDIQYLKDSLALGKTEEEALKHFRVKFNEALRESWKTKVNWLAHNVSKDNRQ

MV4-11 [8] = experiment: Induction of apoptosis in human MV4-11 cells assessed as viable cells at 5 uM incubated for 48 hrs by Annexin V/PI staining based flow cytometric analysis (reference value: […]); type: functional; conditions: read-out: Activity
MV4-11 [9] = experiment: Induction of apoptosis in human MV4-11 cells assessed as late apoptotic cells at 5 uM incubated for 48 hrs by Annexin V/PI staining based flow cytometric analysis (reference value: 2.82%); type: functional
[10] = biological target: Phosphatidylinositol 4,5-bisphosphate 3-kinase catalytic subunit beta isoform (Homo sapiens, UniProt P42338); experiment: Inhibition of PI3Kbeta (unknown origin)
Chain of Phosphatidylinositol 4,5-bisphosphate 3-kinase catalytic subunit beta isoform (P42338 whole entry, canonical isoform): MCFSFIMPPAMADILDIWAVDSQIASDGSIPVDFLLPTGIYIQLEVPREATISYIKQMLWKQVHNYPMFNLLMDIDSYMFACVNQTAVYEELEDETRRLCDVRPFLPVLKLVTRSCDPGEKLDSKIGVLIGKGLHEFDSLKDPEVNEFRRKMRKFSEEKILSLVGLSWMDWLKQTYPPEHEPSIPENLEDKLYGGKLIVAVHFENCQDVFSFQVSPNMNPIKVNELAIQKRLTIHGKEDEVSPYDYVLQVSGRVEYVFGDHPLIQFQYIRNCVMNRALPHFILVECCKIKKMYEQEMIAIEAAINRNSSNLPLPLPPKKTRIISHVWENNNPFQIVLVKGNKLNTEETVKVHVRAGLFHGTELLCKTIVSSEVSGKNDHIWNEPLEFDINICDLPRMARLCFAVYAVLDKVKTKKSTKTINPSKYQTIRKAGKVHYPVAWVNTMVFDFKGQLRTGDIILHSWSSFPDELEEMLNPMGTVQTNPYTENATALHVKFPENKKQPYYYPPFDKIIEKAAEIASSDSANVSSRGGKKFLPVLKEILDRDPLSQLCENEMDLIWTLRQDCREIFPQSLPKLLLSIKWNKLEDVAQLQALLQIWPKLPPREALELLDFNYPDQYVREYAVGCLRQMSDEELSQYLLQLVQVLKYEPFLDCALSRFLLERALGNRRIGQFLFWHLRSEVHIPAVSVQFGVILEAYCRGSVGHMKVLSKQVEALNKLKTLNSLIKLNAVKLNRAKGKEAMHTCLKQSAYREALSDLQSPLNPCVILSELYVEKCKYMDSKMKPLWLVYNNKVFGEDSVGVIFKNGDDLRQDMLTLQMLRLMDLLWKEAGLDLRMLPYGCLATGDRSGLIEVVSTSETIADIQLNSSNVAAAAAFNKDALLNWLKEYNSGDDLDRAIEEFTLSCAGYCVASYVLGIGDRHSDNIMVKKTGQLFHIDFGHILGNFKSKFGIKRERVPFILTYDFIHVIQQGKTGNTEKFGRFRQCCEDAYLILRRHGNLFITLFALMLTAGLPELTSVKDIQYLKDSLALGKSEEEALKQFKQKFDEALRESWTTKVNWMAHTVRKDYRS

Homo sapiens [11] = species: Homo sapiens; experiment: Selectivity index, ratio of IC50 for inhibition of PI3Kalpha (unknown origin) to IC50 for inhibition of PI3Kdelta (unknown origin) by ADP Glo luminescent assay
MV4-11 [12] = experiment: Induction of apoptosis in human MV4-11 cells assessed as viable cells at 1 uM incubated for 48 hrs by Annexin V/PI staining based flow cytometric analysis (reference value: […]); type: functional; conditions: read-out: Activity
Homo sapiens [13] = species: Homo sapiens; experiment: Selectivity index, ratio of IC50 for inhibition of PI3Kbeta (unknown origin) to IC50 for inhibition of PI3Kdelta (unknown origin) by ADP Glo luminescent assay
MV4-11 [14] = experiment: Induction of apoptosis in human MV4-11 cells assessed as viable cells at 10 uM incubated for 48 hrs by Annexin V/PI staining based flow cytometric analysis (reference value: […]); type: functional; conditions: read-out: Activity
MV4-11 [15] = experiment: Induction of apoptosis in human MV4-11 cells assessed as necrotic cells at 3 uM incubated for 48 hrs by Annexin V/PI staining based flow cytometric analysis (reference value: 0.060%); type: functional
MV4-11 [16] = experiment: Induction of apoptosis in human MV4-11 cells assessed as late apoptotic cells at 10 uM incubated for 48 hrs by Annexin V/PI staining based flow cytometric analysis (reference value: 2.82%); type: functional
MV4-11 [17] = experiment: Cell cycle arrest in human MV4-11 cells assessed as accumulation of cells at G2/M phase incubated for 24 hrs by flow cytometric analysis; type: functional, cell-based; conditions: dose 1-10 µM
MV4-11 [18] = experiment: Induction of apoptosis in human MV4-11 cells assessed as total apoptotic cells at 1 to 10 uM incubated for 48 hrs by Annexin V/PI staining based flow cytometric analysis (reference value: 4.39%); type: functional; conditions: dose 1-10 µM
MV4-11 [19] = experiment: Induction of apoptosis in human MV4-11 cells assessed as necrotic cells at 5 uM incubated for 48 hrs by Annexin V/PI staining based flow cytometric analysis (reference value: 0.060%); type: functional
MV4-11 [20] = experiment: Induction of apoptosis in human MV4-11 cells assessed as early apoptotic cells at 10 uM incubated for 48 hrs by Annexin V/PI staining based flow cytometric analysis (reference value: 1.57%); type: functional
MV4-11 [21] = experiment: Induction of apoptosis in human MV4-11 cells assessed as necrotic cells at 10 uM incubated for 48 hrs by Annexin V/PI staining based flow cytometric analysis (reference value: 0.060%); type: functional
MV4-11 [22] = experiment: Induction of apoptosis in human MV4-11 cells assessed as early apoptotic cells at 1 uM incubated for 48 hrs by Annexin V/PI staining based flow cytometric analysis (reference value: 1.57%); type: functional
[23] = biological target: Phosphatidylinositol 4,5-bisphosphate 3-kinase catalytic subunit alpha isoform (Homo sapiens, UniProt P42336); experiment: Inhibition of PI3Kalpha (unknown origin)
Chain of Phosphatidylinositol 4,5-bisphosphate 3-kinase catalytic subunit alpha isoform (P42336 whole entry, canonical isoform): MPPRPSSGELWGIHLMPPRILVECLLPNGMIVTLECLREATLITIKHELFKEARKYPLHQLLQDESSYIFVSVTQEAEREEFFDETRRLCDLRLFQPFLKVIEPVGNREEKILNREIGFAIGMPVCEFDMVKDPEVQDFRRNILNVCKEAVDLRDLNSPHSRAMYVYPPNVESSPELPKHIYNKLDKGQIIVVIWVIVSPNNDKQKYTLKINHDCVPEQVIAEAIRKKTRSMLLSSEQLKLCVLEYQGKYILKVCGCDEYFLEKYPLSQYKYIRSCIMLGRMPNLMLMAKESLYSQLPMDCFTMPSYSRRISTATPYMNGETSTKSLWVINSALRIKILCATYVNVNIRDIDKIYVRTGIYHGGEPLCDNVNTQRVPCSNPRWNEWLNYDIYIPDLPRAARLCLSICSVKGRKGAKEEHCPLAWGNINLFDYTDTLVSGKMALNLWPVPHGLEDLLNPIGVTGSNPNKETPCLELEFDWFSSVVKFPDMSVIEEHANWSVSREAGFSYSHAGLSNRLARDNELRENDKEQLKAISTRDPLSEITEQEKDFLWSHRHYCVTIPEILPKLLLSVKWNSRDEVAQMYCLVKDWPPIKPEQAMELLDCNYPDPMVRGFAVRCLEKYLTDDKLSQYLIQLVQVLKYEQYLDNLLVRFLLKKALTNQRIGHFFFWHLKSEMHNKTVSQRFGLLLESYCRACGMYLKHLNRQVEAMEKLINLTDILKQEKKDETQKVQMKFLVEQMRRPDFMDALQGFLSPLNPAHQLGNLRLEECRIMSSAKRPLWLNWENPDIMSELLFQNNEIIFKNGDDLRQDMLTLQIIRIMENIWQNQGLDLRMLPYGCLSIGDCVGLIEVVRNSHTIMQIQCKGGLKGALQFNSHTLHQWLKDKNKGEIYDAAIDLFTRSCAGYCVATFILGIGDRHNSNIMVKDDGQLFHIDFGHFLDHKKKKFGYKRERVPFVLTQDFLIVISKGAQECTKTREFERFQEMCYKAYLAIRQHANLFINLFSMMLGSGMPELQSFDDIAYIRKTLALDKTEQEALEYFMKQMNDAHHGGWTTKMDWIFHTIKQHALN

Homo sapiens [24] = species: Homo sapiens; experiment: Selectivity index, ratio of IC50 for inhibition of PI3Kgamma (unknown origin) to IC50 for inhibition of PI3Kdelta (unknown origin) by ADP Glo luminescent assay
MV4-11 [25] = experiment: Induction of apoptosis in human MV4-11 cells assessed as early apoptotic cells at 5 uM incubated for 48 hrs by Annexin V/PI staining based flow cytometric analysis (reference value: 1.57%); type: functional
[26] = biological target: Serine/threonine-protein kinase AKT (Homo sapiens) (UniProt P31751+Q9Y243+P31749); experiment: Inhibition of AKT phosphorylation in human MV4-11 cells incubated for 4 hrs by Western blot analysis; type: cell-based; conditions: dose 1-10 µM
Chain of Serine/threonine-protein kinase AKT (Homo sapiens) (P31749 whole entry, looked up): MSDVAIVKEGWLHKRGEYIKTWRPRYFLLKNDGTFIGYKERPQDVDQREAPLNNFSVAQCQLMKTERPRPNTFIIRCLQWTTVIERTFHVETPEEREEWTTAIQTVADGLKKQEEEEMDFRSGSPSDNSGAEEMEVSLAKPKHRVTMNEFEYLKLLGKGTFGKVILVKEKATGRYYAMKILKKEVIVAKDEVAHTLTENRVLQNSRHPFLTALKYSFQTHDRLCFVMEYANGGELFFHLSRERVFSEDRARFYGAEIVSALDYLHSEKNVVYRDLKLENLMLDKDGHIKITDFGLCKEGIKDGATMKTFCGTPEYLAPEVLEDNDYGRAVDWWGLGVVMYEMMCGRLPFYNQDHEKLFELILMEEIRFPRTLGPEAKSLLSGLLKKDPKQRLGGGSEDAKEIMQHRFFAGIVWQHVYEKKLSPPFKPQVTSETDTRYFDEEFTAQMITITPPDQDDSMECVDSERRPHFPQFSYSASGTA
Chain of Serine/threonine-protein kinase AKT (Homo sapiens) (P31751 whole entry, looked up): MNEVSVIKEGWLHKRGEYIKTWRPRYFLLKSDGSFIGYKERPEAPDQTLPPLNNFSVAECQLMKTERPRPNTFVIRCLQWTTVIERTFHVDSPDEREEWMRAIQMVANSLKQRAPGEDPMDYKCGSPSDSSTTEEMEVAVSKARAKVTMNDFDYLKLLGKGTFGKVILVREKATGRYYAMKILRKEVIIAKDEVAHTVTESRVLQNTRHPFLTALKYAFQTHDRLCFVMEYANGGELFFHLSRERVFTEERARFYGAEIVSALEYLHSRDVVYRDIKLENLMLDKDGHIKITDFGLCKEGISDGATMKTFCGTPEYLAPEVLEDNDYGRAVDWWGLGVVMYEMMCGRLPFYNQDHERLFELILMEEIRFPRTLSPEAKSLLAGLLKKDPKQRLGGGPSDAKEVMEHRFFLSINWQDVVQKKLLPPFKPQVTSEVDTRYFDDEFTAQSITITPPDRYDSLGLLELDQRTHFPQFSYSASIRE
Chain of Serine/threonine-protein kinase AKT (Homo sapiens) (Q9Y243 whole entry, looked up): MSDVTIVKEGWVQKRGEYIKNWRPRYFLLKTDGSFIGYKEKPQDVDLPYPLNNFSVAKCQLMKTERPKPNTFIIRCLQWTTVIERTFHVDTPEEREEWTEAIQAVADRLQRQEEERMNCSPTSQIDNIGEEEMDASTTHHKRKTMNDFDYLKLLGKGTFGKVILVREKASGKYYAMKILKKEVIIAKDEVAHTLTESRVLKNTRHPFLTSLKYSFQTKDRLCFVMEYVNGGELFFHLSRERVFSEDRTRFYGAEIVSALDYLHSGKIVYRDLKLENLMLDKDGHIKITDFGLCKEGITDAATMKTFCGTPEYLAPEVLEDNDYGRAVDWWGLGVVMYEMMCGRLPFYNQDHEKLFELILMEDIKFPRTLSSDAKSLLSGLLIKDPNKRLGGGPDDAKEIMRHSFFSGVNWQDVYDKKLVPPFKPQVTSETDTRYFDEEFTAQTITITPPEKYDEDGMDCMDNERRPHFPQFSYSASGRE

MV4-11 [27] = experiment: Induction of apoptosis in human MV4-11 cells assessed as late apoptotic cells at 3 uM incubated for 48 hrs by Annexin V/PI staining based flow cytometric analysis (reference value: 2.82%); type: functional
MV4-11 [28] = experiment: Induction of apoptosis in human MV4-11 cells assessed as viable cells at 3 uM incubated for 48 hrs by Annexin V/PI staining based flow cytometric analysis (reference value: […]); type: functional; conditions: read-out: Activity

IC50 (HL-60): 480 nM
IC50 (MV4-11 [2]): 4300 nM
SMILES: CC[C@H](Nc1ncnc2[nH]cnc12)c1nc2cccc(F)c2c(=O)n1-c1ccccc1 [IDELALISIB]
IC50 [1]: 13300 nM
IC50 (KG-1): 15200 nM
IC50 (EOL1): > 50000 nM

IC50 [6]: 243 nM
IC50 [7]: 30 nM
IC50 [10]: 295 nM
Ratio IC50 (Homo sapiens [11]): 8
Ratio IC50 (Homo sapiens [13]): 8
IC50 (HL-60): 8700 nM
IC50 (MV4-11 [2]): 3700 nM
IC50 [23]: 288 nM
Ratio IC50 (Homo sapiens [24]): 8
inhibition [26]: Dose-Dependent Effect
SMILES: COCCNC(=O)Nc1ccc(-c2cnc(Cl)c(NS(=O)(=O)c3ccccc3)c2)cn1
Activity (MV4-11 [3]): 0.1%
Activity (MV4-11 [4]): 1.47%
Activity (MV4-11 [5]): 2.65%
viability at 5 µM (MV4-11 [8]): 85.5%
Activity (MV4-11 [9]): 10.9%
IC50 [1]: 2600 nM
viability at 1 µM (MV4-11 [12]): 96%
viability at 10 µM (MV4-11 [14]): 57.4%
Activity (MV4-11 [15]): 0.335%
Activity (MV4-11 [16]): 28.1%
Activity (MV4-11 [17]): Dose-Dependent Effect
IC50 (KG-1): 18900 nM
Activity (MV4-11 [18]): 3.85%
Activity (MV4-11 [19]): 1.69%
Activity (MV4-11 [20]): 3.21%
Activity (MV4-11 [21]): 11.3%
Activity (MV4-11 [22]): 1.2%
Activity (MV4-11 [25]): 1.92%
IC50 (EOL1): 15900 nM
Activity (MV4-11 [27]): 4.18%
viability at 3 µM (MV4-11 [28]): 94%

IC50 [7]: 33500 nM
SMILES: N#Cc1ncc(-c2ccc(N)nc2)cc1N

IC50 [7]: 31 nM
SMILES: CC(C)(C)c1ccc(S(=O)(=O)Nc2cc(-c3ccc(N)nc3)cnc2Cl)cc1

IC50 [7]: 46 nM
SMILES: CCCC(=O)Nc1ccc(-c2cnc(Cl)c(NS(=O)(=O)c3ccccc3)c2)cn1

IC50 (HL-60): 89 nM
IC50 (MV4-11 [2]): 54 nM
SMILES: Oc1cccc(-c2nc(N3CCOCC3)c3oc4ncccc4c3n2)c1 [PI-103]
IC50 [1]: 58 nM
IC50 (KG-1): 88 nM
IC50 (EOL1): 1600 nM

IC50 [7]: > 50000 nM
SMILES: Cc1ncc(-c2ccc(N)nc2)cc1N

IC50 [7]: > 50000 nM
SMILES: COc1ncc(-c2ccc(N)nc2)cc1N

IC50 [7]: > 50000 nM
SMILES: Nc1ccc(-c2cnc(Cl)c(F)c2)cn1

IC50 [7]: 47500 nM
SMILES: Nc1ccc(-c2ccc(Cl)nc2)cn1

IC50 [7]: 98 nM
SMILES: Nc1ccc(-c2cnc(Cl)c(NS(=O)(=O)c3ccc(F)cc3)c2)cn1

IC50 [7]: 49 nM
SMILES: CCC(=O)Nc1ccc(-c2cnc(Cl)c(NS(=O)(=O)c3ccccc3)c2)cn1

IC50 [7]: 46600 nM
SMILES: Nc1ccc(-c2cnc(Cl)c(C(F)(F)F)c2)cn1

IC50 [7]: 52 nM
SMILES: Nc1ccc(-c2cnc(Cl)c(NS(=O)(=O)c3ccccc3)c2)cn1

IC50 [7]: > 50000 nM
SMILES: CCOc1ncc(-c2ccc(N)nc2)cc1N

IC50 [7]: > 50000 nM
SMILES: Nc1ccc(-c2cnc(N)c(N)c2)cn1

IC50 [7]: > 50000 nM
SMILES: N#Cc1cc(-c2ccc(N)nc2)cnc1Cl

IC50 [7]: 67 nM
SMILES: Nc1ccc(-c2cnc(Cl)c(NS(=O)(=O)c3ccc(F)cc3F)c2)cn1

IC50 [6]: 180 nM
IC50 [7]: 104 nM
IC50 [10]: 235 nM
IC50 [23]: 412 nM
SMILES: CCNC(=O)Nc1ccc(-c2cnc(Cl)c(NS(=O)(=O)c3ccccc3)c2)cn1

IC50 [7]: 48 nM
SMILES: CC(=O)Nc1ccc(-c2cnc(Cl)c(NS(=O)(=O)c3ccccc3)c2)cn1

IC50 [7]: > 50000 nM
SMILES: Nc1ccc(-c2cnc(F)c(N)c2)cn1

IC50 [7]: 32500 nM
SMILES: Nc1ccc(-c2cnc(Cl)c(N)c2)cn1

IC50 [7]: 11300 nM
SMILES: CN(c1cc(-c2ccc(N)nc2)cnc1Cl)S(=O)(=O)c1ccccc1

IC50 [7]: 41 nM
SMILES: Cc1ccc(S(=O)(=O)Nc2cc(-c3ccc(N)nc3)cnc2Cl)cc1

IC50 [7]: > 50000 nM
SMILES: Nc1cncc(-c2ccc(N)nc2)c1
